Laboratory results: patent US12343319B2, “Compositions and methods for treatment of diseases and disorders” (Atai Therapeutics Inc., priority 2023, dated 2025)

Experiments:
[1] = biological target: T1, 5-HT1A (Homo sapiens, UniProt P08908); assay: cAMP, 5-HT1A; type: cell-based
T1 construct: expressed in transfected cells
T1 sequence (P08908 1-422): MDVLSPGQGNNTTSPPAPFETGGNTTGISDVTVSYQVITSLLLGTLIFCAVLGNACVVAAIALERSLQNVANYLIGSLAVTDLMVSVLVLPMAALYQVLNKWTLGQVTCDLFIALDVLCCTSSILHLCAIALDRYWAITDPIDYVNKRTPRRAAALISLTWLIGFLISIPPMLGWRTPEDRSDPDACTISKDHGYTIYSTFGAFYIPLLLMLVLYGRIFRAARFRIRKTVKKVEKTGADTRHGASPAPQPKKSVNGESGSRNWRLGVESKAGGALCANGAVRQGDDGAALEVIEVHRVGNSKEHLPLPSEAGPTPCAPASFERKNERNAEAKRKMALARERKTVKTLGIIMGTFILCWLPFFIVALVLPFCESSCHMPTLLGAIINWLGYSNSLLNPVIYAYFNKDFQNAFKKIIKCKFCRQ
Protocol: (§1) In vitro pharmacology studies were performed to evaluate the effects of compound 2-1 on functional activity of several 5-HT receptors using recombinant target overexpression cell culture systems. The effect of compound 2-1 on G protein-dependent signaling was investigated at 5-HT2A, 5-HT2B, and 5-HT2C receptors with calcium mobilization and IPOne assays; and at 5-HT1A, 5-HT1B, 5-HT1F, 5-HT5A, and 5-HT7D receptors with a cAMP assay. G protein-independent signaling was investigated at the 5-HT2A receptor with a β-Arrestin assay.
(§2) In vitro pharmacology studies were performed to evaluate the effects of compound 2-2 on functional activity at several 5-HT receptors using recombinant target overexpression cell culture systems. The effect of compound 2-2 on G protein-dependent signaling was investigated at 5-HT2A, 5-HT2B, and 5-HT2C receptors with calcium mobilization and IPOne assays; and at 5-HT1A, 5-HT1B, 5-HT1F, 5-HT5A, and 5-HT7D receptors with a cAMP assay. G protein-independent signaling was investigated at the 5-HT2A receptor with a β-arrestin assay. […] In Table 4, 5-HT receptor selectivity was calculated using ΔΔlog(Emax/EC50). Assay reference α-Me-5-HT or 5-HT was used for normalization at each receptor (5-HT2A/5-HT2B selectivity=1; 5-HT2A/5-HT2C selectivity=1). ND in Table 4 indicates, not determined, plateau was not reached within the concentration range tested to determine Emax.

[2] = biological target: 5-HT2A (rat) (Rattus norvegicus, UniProt P14842); assay: IPOne, rat 5-HT2A; type: cell-based; details: for Emax / 5-HT2A/5-HT2B Selectivity (rat): IPOne; for Emax: rat 5-HT2A, read-out: Emax (% α-Me-5-HT); for 5-HT2A/5-HT2B Selectivity (rat): rat receptors
Source text: (§3) Overall, in vitro activity at rodent 5-HT2A and 5-HT2B receptors is consistent with the human receptor results, with compound 2-1 acting as a potent and selective 5-HT2A agonist.
(§4) Overall, in vitro activity at rodent 5-HT2A and […] receptors is consistent with the human receptor results, with compound 2-2 acting as a potent and selective 5-HT2A agonist. In Table 5, ND indicates not determined.

[3] = biological target: T2, 5-HT1B (Homo sapiens, UniProt P28222); assay: cAMP, 5-HT1B; type: cell-based
T2 construct: expressed in transfected cells
Protocol: as §1, §2

[4] = biological target: 5-HT2B (rat) (Rattus norvegicus, UniProt P30994); assay: IPOne, rat 5-HT2B; type: cell-based
Source text: as §3, §4

[5] = biological target: 5-HT2A (mouse) (Mus musculus, UniProt P35363); assay: β-Arrestin, mouse 5-HT2A; type: cell-based; details: for Emax: β-Arrestin, mouse 5-HT2A, read-out: Emax (%5-HT)
Source text: as §3, §4

[6] = tested on: 5-HT2A; assay: Ca++ (calcium mobilization), 5-HT2A; type: cell-based, human; details: Ca++, human; calculated using ΔΔlog(Emax/EC50), reference = 1
Protocol: as §1, §2

[7] = biological target: T3, 5-HT2A (Homo sapiens, UniProt P28223); assay: Ca++ (calcium mobilization), 5-HT2A; type: cell-based; design: expressed in transfected cells; details: for Emax: read-out: Emax (%5-HT)
Protocol: as §1, §2

[8] = biological target: T3, 5-HT2A; assay: Radioligand binding, 5-HT2A; design: expressed in transfected cells; details: for Max % inhibition: radioligand binding, human 5-HT2A
[9] = biological target: T4, 5-HT5A (Homo sapiens, UniProt P47898); assay: cAMP, 5-HT5A; type: cell-based
T4 construct: expressed in transfected cells
Protocol: as §1, §2

[10] = biological target: T3, 5-HT2A; assay: IPOne, 5-HT2A; type: cell-based; design: expressed in transfected cells; details: for Emax: read-out: Emax (% α-Me-5-HT)
Protocol: as §1, §2

[11] = biological target: T5, 5-HT2B (Homo sapiens, UniProt P41595); assay: IPOne, 5-HT2B; type: cell-based; details: for Emax: IPOne, human 5-HT2B, read-out: Emax (% α-Me-5-HT)
T5 construct: expressed in transfected cells
Protocol: as §1, §2

5-HT2A (rat), sequence (P14842 whole entry): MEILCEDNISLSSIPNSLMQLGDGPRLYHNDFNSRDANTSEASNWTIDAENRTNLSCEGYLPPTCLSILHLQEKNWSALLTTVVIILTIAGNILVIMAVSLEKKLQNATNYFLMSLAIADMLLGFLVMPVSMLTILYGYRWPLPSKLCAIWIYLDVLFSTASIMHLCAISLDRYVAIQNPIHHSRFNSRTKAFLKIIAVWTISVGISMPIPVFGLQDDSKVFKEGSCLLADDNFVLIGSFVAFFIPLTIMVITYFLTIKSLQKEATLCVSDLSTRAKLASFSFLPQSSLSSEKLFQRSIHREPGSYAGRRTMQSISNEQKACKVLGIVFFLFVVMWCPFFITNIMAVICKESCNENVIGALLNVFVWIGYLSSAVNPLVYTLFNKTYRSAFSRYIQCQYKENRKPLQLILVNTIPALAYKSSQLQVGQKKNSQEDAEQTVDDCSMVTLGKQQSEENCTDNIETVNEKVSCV
T3 sequence (P28223 whole entry): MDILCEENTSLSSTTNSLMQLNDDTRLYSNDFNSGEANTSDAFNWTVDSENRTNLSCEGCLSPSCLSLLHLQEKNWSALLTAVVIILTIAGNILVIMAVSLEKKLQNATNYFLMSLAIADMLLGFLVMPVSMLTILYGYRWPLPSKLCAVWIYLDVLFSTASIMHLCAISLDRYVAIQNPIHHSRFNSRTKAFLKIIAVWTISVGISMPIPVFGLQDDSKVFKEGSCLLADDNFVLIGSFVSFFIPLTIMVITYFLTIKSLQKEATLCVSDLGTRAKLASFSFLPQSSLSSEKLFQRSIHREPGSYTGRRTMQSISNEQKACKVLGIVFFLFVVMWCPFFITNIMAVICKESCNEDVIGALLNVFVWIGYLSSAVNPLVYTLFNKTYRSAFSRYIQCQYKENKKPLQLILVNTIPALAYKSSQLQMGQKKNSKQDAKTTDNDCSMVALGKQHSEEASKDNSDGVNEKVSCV
5-HT2B (rat), sequence (P30994 whole entry): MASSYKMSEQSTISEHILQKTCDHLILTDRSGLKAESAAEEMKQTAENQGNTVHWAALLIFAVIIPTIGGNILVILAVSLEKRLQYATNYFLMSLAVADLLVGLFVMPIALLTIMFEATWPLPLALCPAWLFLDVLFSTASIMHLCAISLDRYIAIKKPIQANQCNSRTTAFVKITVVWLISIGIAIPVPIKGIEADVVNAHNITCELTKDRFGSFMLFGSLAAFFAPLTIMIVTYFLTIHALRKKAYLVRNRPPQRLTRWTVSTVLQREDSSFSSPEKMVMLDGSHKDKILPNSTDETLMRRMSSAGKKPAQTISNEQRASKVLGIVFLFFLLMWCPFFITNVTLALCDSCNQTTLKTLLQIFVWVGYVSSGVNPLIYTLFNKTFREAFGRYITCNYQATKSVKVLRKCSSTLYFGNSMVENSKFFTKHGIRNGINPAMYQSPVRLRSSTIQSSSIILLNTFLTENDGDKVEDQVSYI
T4 sequence (P47898 whole entry): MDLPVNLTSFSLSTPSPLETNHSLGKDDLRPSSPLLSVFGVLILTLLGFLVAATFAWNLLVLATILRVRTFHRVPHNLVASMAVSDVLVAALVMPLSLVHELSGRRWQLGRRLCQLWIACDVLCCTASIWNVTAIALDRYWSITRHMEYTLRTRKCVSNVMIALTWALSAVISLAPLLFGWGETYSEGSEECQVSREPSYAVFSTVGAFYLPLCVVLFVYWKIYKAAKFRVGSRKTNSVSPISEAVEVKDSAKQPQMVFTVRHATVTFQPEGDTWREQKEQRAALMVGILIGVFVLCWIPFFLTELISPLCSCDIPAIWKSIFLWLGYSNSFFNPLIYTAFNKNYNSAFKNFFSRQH
5-HT2A (mouse), sequence (P35363 whole entry): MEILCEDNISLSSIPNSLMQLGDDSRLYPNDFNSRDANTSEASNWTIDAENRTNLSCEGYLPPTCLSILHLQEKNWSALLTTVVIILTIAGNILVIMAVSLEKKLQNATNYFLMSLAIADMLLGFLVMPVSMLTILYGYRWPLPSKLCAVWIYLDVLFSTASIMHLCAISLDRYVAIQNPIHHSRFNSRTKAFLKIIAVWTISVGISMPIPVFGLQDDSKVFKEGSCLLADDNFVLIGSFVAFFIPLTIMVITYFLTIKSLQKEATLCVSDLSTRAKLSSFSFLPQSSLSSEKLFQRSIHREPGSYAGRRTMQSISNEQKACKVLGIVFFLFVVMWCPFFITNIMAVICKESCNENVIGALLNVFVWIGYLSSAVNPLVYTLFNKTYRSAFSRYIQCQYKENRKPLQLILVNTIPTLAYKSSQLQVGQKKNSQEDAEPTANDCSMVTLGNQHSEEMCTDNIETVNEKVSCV
T5 sequence (P41595 whole entry): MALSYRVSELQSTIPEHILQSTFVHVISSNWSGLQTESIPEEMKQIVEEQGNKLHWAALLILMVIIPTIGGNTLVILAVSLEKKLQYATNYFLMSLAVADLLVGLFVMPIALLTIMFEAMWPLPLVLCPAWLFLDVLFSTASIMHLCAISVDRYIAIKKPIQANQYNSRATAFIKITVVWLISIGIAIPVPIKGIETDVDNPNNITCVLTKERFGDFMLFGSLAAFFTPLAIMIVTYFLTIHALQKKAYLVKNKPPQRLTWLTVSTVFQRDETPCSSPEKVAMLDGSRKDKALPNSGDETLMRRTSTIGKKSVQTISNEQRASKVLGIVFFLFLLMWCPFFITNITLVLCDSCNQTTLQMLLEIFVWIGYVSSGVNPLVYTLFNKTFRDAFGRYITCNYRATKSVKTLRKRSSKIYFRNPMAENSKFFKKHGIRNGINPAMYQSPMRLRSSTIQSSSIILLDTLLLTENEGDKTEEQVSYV
T2 sequence (P28222 whole entry): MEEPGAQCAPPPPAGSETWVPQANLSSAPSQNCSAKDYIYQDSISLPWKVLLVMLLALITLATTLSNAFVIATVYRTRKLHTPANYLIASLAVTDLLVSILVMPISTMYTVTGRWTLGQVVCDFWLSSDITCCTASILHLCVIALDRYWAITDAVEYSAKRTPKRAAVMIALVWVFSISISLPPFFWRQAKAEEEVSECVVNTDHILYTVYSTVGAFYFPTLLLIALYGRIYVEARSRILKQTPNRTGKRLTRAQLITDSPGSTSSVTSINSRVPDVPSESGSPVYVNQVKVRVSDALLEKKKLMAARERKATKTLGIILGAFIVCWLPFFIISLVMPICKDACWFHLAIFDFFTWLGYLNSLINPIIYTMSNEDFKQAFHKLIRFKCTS

SMILES	EC50 [1]	EC50 [2]	Emax [2]	5-HT2A/5-HT2B Selectivity (rat) [2]	EC50 [3]	EC50 [4]	EC50 [5]	Emax [5]	5-HT2A/5-HT2C Selectivity [6]	EC50 [7]	Emax [7]	IC50 [8]	Max % inhibition [8]	EC50 [9]	EC50 [10]	Emax [10]	EC50 [11]	Emax [11]	further results
COc1ccc(OC)c(CCNCc2cc(C)cc(Cl)c2)c1 [Compound 2-1, N-(3-chloro-5-methylbenzyl)-2-(2,5-dimethoxyphenyl)ethan-1-amine]	> 20000 nM	3.06 nM	99.5%	>100000	> 100000 nM	> 1000 nM	4.37 nM	65%	77	4.24 nM	93.3%	42.4 nM	96.93%	25.2 nM	2.8 nM	99.4%	34.7 nM	77.6%	agonist activity (in words) ([2]; rat 5-HT2A receptor): full agonist activity; agonist activity (in words) ([4]; rat 5-HT2B receptor): inactive; Emax ([9]; cAMP, human 5-HT5A, read-out: Emax (%5-HT)): 44.4%; agonist activity (in words) ([9]; human 5-HT5A receptor): partial agonist activity; agonist activity (in words) ([11]; human 5-HT2B receptor): full agonist activity
COc1ccc(OC)c(CCNCc2cc(C)cc(F)c2)c1 [Compound 2-2, 2-(2,5-dimethoxyphenyl)-N-(3-fluoro-5-methylbenzyl)ethan-1-amine]	> 1000 nM	7.2 nM	105%	>100000	> 100000 nM	> 1000 nM	21.8 nM	60.2%	56	9 nM	88%	105 nM	99%	> 30000 nM	9.19 nM	97.9%	81.1 nM	49.3%	
